Experimental data reported in PMC9853848 (Journal of the American Chemical Society, 2022).
Like-named read-outs stand apart in the source and are kept apart here.

Key:
P91 [1] = molecular target: T1, P91; type: biochemical, uncultured bacterium
T1 construct: full-length, N-terminal His6-tag, purified recombinant (E. coli); Cys118-His199-Asp167 triad

P91 [2] = tested on: T1, P91; type: biochemical, uncultured bacterium; settings: read-out: KM (μM) ^b
P91 [3] = settings: P91-R2; 25 °C, pH 8.0; covalent intermediate

In the case of `CCOP(=O)(OCC)Oc1ccc2c(c1)Oc1cc(OP(=O)(OCC)OCC)ccc1C21OC(=O)c2ccccc21` [compound 1, FDDEP], the “Ki” value (P91 [1]) is reported as 290 ± 89 µM and the Km (P91 [2]) is reported as 46 ± 9.7 µM.

In the case of `CCOP(=O)(OCC)Oc1ccc([N+](=O)[O-])cc1` [compound 2, paraoxon-ethyl], the Km (P91 [3]) is reported as 290 µM.
